Legend:
Assay type in all cases: cell-based, human
[1] = test system: iPSC-derived RPE cells; test: Sensitivity of iPSC-derived RPE cells to proteotoxic stressors in 384-well plates; conditions: conc. 10 μM, signals measured four days after the treatment, FIG. 29
Experimental: FIG. 29 is a bar graph showing the sensitivity of iPSC-derived RPE cells to various proteotoxic stressors. RPE cells differentiated from the reporter iPS cell line were grown in 384-well plates and treated with indicated stressors (conc. 10 μM). […] signals were measured four days after the treatment.

[2] = test system: iPSC derived retinal pigment epithelial cells; test: Aphidicolin treatment of iPSC-derived RPE: polarization, electrophysiology and phenotype
From the text: (§1) Calomel electrodes in series with Ringer solutions and agar bridges were used to measure the transepithelial potential (TEP). The signals from intracellular microelectrodes were referenced to the basal bath to measure the apical and basal membrane potentials, VA and VB, where TEP=VB−VA. The total transepithelial resistance (Rt), and the ratio of the apical to basolateral membrane resistance (RA/RB) were obtained by passing 2-4 μA current pulses (peak to peak) across the tissue and measuring the resultant changes in TEP, VA and VB. See Maminishkis et al. supra and Quinn et al., supra for details.
Aphidicolin is a reversible inhibitor of eukaryotic nuclear DNA replication that blocks the cell cycle at early S phase. Its structure is that of a tetracyclic small molecule. […] It causes committed RPE cells to further mature and form fully-differentiated and highly polarized tissue monolayers (see FIGS. 30-31). Aphidicolin is dissolved in fourth medium and RPE cells are cultured in it for 6-8 weeks before analysis is done.

[3] = test system: iPSC-derived RPE; test: Intracellular calcium measurements and electrophysiology of iPSC-derived RPE monolayers
Experimental: Intracellular Calcium Measurements and Electrophysiology: To assess calcium signaling in the RPE cells: ATP (200 μM; Sigma) and Cyclopiazonic Acid (CPA; 10 μM; EMD Millipore); (see Maminishkis et al., Invest. Ophthal. Vis. Sci. 47(8):3612-3624, 2006); Quinn et al., Invest. Ophthal. Vis. Sci. 33(13):3513-3527, 1992).
as §1

[4] = test system: iPSCs; test: RPE differentiation from iPSCs scored by pigmented cells
Experimental: Transfer cells to Retinal Media (RM) plus Nicotinamide, Activin, and Wnt3a (NAW). Change media every other day (eg. Mon, Wed, and Fri) for 3 weeks.
Next, the effect of the concentration of knockout serum replacement (KSR) on RPE differentiation was tested.
Activin A induces RPE differentiation from ES cells. In animal models, canonical WNT (WNT3a) is important for RPE differentiation. It was hypothesized that a combination of activin A and WNT3a would be effective for the induction of RPE differentiation from iPSCs. A combination of these two factors was tested at the optic vesicle stage. Cells were moved from the RDM medium to medium containing either activin A (NA) only or activin A plus WNT3a (NAW). […] Because this differentiation process was started with the reporter iPSC lines, the increase in the number of RPE cell was confirmed by comparing the GFP signal between the two treatments. […] When quantified by FACS analysis, NA treatment produced only 22% GFP positive cells, whereas NAW treatment produced 52% GFP positive cells (FIG. 17, bottom panel).

[5] = test system: reporter iPSC line; test: GFP reporter signal / FACS analysis of RPE differentiation from reporter iPSC line; conditions: NAW versus NA, FIG. 17
From the text: To optimize the protocol for iPSC to RPE differentiation, a reporter iPSC line was created. This reporter line constitutively expresses a red fluorescent protein, whose expression is controlled by ubiquitin gene promoter. The reporter iPSC line also expresses a green fluorescent protein (GFP), specifically when differentiated in to RPE lineage (FIG. 1-3). The RPE-specific enhancer of the gene Tyrosinase controls GFP expression in this iPSC line (FIG. 1). The first goal was to confirm that the GFP expression truly represents RPE lineage. To achieve this, iPSC line were differentiated using published differentiation protocols and characterized those differentiated cells using molecular and physiological assays. These assays are disclosed in FIGS. 22-24. FIG. 2 describes a simple schematic drawing of iPSC-RPE differentiation. When the reporter iPSC were differentiated into RPE, approximately 28 days into differentiation, GFP positive cells are present (FIG. 3A). […] GFP positive and negative cells were sorted by flow cytometry and the expression of several RPE-specific genes was analyzed, shown in FIG. 4.
Activin A induces RPE differentiation from ES cells. […] When quantified by FACS analysis, NA treatment produced only 22% GFP positive cells, whereas NAW treatment produced 52% GFP positive cells (FIG. 17, bottom panel).

[6] = test system: iPSCs; test: Quantitative gene expression of Pax6 and Mitf during eye-field/optic vesicle differentiation; conditions: 50 ng/ml Noggin with dual inhibition of WNT pathway and inhibition of FGF pathway
Experimental: After 48 hours of floating EB cultures they are plated onto MATRIGEL® coated plates in RDM medium. It was investigated whether the number of EBs plated/well affects differentiation of iPSCs into RPE. […] RDM medium was used for 3 weeks with change of medium on cells every Monday, Wednesday, and Friday Inhibition of Nodal, BMP, and WNT pathways can be important for differentiation of stem cells into eye-field cells. To inhibit the nodal pathway, the inhibitor SB431542 was used. To inhibit the activity of BMP pathway, various concentrations of Noggin, a BMP inhibitor, were tested. For WNT pathway inhibition, a combination of biological Wnt inhibitor DKK1 and a small molecule inhibitor of the WNT pathway CK1-7 were used.
Results have shown that inhibition of FGF signaling is important for RPE development. Therefore, the activity of FGF signaling pathway was modulated by either changing its concentration or/and by adding FGF inhibitor (PD 0325901) to the medium. The results were scored weekly by quantitative gene expression measurements of two transcription factors Pax6 and Mitf which are the master regulators of RPE differentiation (FIGS. 8-13). In addition, GFP expression was scored after six weeks as a direct measure of induction of RPE cells (FIG. 14).

[7] = aphidicolin treated RPE cells, FIG. 31

Q: CNc1ccc2oc(C[C@H]3O[C@@]4(CC[C@H]3C)O[C@H]([C@H](C)C(=O)c3ccc[nH]3)[C@H](C)C[C@H]4C)nc2c1C(=O)O [A23187] was tested. Which “effect on RPE phenotype (GFP signal)” value [1] did it give?
A: affected RPE phenotype

Q: Which membrane potential [2, 7] does the source give for C[C@@]1(CO)[C@H](O)CC[C@@]2(C)[C@H]1CC[C@H]1C[C@@H]3C[C@@]12CC[C@]3(O)CO [Aphidicolin] here?
A: higher

Q: And the “physiological responses (hyperpolarization to low potassium or ATP on the apical side)” value [2, 7]?
A: better physiological responses

Q: What about the transepithelial resistance [2, 7] of the same molecule?
A: higher

Q: What about the “apical process / polarization of RPE cells” value ([2]; compared to non-treated cells, FIG. 30) of the same molecule?
A: more extensive apical process

Q: And the “RPE phenotype of iPS cell derived RPE on artificial membranes/scaffolds” value ([2]; cultured 6-8 weeks in fourth medium with aphidicolin)?
A: improves their RPE phenotype

Q: Which “effect on RPE phenotype (GFP signal)” value [1] does the source give for O=CC[C@@H](O)[C@H](O)[C@H](O)CO [2-Deoxy-D-Glucose] here?
A: affected RPE phenotype

Q: Which results are given for Nc1ncnc2c1ncn2[C@@H]1O[C@H](COP(=O)(O)OP(=O)(O)OP(=O)(O)O)[C@@H](O)[C@H]1O [ATP]?
A: intracellular calcium response ([3]; apical application, FIG. 26C): typical bi-phasic response; basolateral membrane potential response ([3]; applied to the apical membrane, FIG. 26D): significantly depolarizes the basolateral membrane

Q: For C/C=C(/C)C(=O)O[C@H]1C(C)=C2[C@H]([C@@H]1OC(=O)CCCCCCC)[C@@](C)(OC(C)=O)C[C@H](OC(=O)CCC)[C@@]1(O)[C@H]2OC(=O)[C@@]1(C)O [Thapsigargin], which “effect on RPE phenotype (GFP signal)” value [1] is on record?
A: affected RPE phenotype

B1: WNT3a: canonical WNT signaling regulator (protein, UniProt P56704 19-352, looked up)
Protein Wnt-3a: SYPIWWSLAVGPQYSSLGSQPILCASIPGLVPKQLRFCRNYVEIMPSVAEGIKIGIQECQHQFRGRRWNCTTVHDSLAIFGPVLDKATRESAFVHAIASAGVAFAVTRSCAEGTAAICGCSSRHQGSPGKGWKWGGCSEDIEFGGMVSREFADARENRPDARSAMNRHNNEAGRQAIASHMHLKCKCHGLSGSCEVKTCWWSQPDFRAIGDFLKDKYDSASEMVVEKHRESRGWVETLRPRYTYFKVPTERDLVYYEASPNFCEPNPETGSFGTRDRTCNVSSHGIDGCDLLCCGRGHNARAERRREKCRCVFHWCCYVSCQECTRVYDVHTCK
Q: How did the “number of pigmented cells per dish” value ([4]; activin A plus WNT3a (NAW) versus activin A only (NA), FIG. 16) turn out when B1 was run?
A: significantly increased the number of pigmented cells per dish

Q: And the RPE differentiation efficiency ([4]; addition of WNT3a to Retinal Media with Nicotinamide and Activin)?
A: significantly increased the RPE differentiation efficiency

Q: What about the “number of GFP positive cells in differentiating iPSC cultures” value [5] of the same molecule?
A: significantly increases the number of GFP positive cells

B2: Noggin: a BMP inhibitor, protein encoded by the NOG gene (protein, UniProt Q13253 28-232, looked up)
Noggin: QHYLHIRPAPSDNLPLVDLIEHPDPIFDPKEKDLNETLLRSLLGGHYDPGFMATSPPEDRPGGGGGAAGGAEDLAELDQLLRQRPSGAMPSEIKGLEFSEGLAQGKKQRLSKKLRRKLQMWLWSQTFCPVLYAWNDLGSRFWPRYVKVGSCFSKRSCSVPEGMVCKPSKSVHLTVLRWRCQRRGGQRCGWIPIQYPIISECKCSC
Q: B2 was tested. Which “expression of Pax6 and Mitf during the three weeks” value [6] did it give?
A: significantly and progressively improve the expression of Pax6 and Mitf

Source: patent US12674204B2, “Method for generating retinal pigment epithelium (RPE) cells from induced pluripotent stem cells (iPSCs)” (THE UNITED STATES OF AMERICA, as represented by the …, priority 2013, dated 2026)
